For the assay, the target named is T1, Human PD-L1/PD-1 (Homo sapiens, UniProt Q9NZQ7).
T1 construct: TVMV protease cleavage site (C); made in house; host or cells: HEK293T cells
Put plainly: HTRF Human PD-L1/PD-1 binding assay (PD-1-Ig/PD-L1-His). The note with it: PD-L1-His 10 nM, PD-1-Ig 20 nM; class symbol; read-out: HTRF Human PD-L1/PD-1 Binding Assay IC50 Range. The method, boiled down: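 Step 1: compound with PD-L1-His (10 nM final), 15 min. Step 2: PD-1-Ig (20 nM final), 15 min. Step 3: Eu-cryptate anti-Ig (1 nM) plus APC anti-His (20 nM), 30 min equilibration. Signal taken as 665 nm/620 nm ratio.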

Each structure is given as a SMILES string. Where a SMILES comes first, the peptide text is derived from it. Bridges are numbered along the chain shown (N, C = ends). [ ]: non-standard residue; d: D form. ξ: configuration not given here. Trp(1-CH2COOH) = N[C@@H](Cc1cn(CC(=O)O)c2ccccc12)C(=O)O; Phe(3,4,5-F3) = N[C@@H](Cc1cc(F)c(F)c(F)c1)C(=O)O; Morpholine(3S-CO) = O=C(O)[C@@H]1COCCN1; Phe(4-F) = N[C@@H](Cc1ccc(F)cc1)C(=O)O; d(cisHyp) = O=C(O)[C@H]1C[C@@H](O)CN1; Bta = N[C@@H](Cc1csc2ccccc12)C(=O)O; Hyp = O=C(O)[C@@H]1C[C@@H](O)CN1; NMeF = CN[C@@H](Cc1ccccc1)C(=O)O; Pip(4-aza) = O=C(O)[C@@H]1CNCCN1; dPip(4-aza) = O=C(O)[C@H]1CNCCN1; NMeL = CN[C@@H](CC(C)C)C(=O)O; NMeNle = CCCC[C@H](NC)C(=O)O; Pip = O=C(O)[C@@H]1CCCCN1; dPip = O=C(O)[C@H]1CCCCN1; hSer = N[C@@H](CCO)C(=O)O; NMeA = CN[C@@H](C)C(=O)O; Orn = NCCC[C@H](N)C(=O)O; Dab = NCC[C@H](N)C(=O)O; Dap = NC[C@H](N)C(=O)O; ξC = NC(CS)C(=O)O

T1 sequence (Q9NZQ7 with tags, fused parts or gaps): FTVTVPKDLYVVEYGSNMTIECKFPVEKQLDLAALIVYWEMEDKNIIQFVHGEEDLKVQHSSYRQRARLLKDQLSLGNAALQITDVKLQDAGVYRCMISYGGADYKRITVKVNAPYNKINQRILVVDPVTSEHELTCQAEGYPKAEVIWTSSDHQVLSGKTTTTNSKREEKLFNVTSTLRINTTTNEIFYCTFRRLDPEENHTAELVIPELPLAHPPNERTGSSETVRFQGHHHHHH

As for `CCCC[C@H]1C(=O)N(C)[C@@H](CCCC)C(=O)N[C@@H](CCC(=O)O)C(=O)N[C@H](C(=O)NCC(N)=O)CSCC(=O)N[C@@H](Cc2ccc(O)cc2)C(=O)N2CCOC[C@H]2C(=O)N[C@@H](CC(=O)O)C(=O)N2CCC[C@H]2C(=O)N[C@@H](Cc2c[nH]cn2)C(=O)N[C@@H](CCC(N)=O)C(=O)N2C[C@H](O)C[C@H]2C(=O)N[C@@H](Cc2c[nH]c3ccccc23)C(=O)N[C@@H](CO)C(=O)N[C@@H](Cc2c[nH]c3ccccc23)C(=O)N1C` [Example 1515] ({CH2CO}-Y[Morpholine(3S-CO)]DPHQ[Hyp]WSW[NMeNle][NMeNle]ECG-NH2; thioether N-14), the IC50 was in the range of 1 to 9.9 nM.

Turning to `CCCC[C@H]1C(=O)N2CCC[C@@H]2C(=O)N2CCCC[C@H]2C(=O)N[C@@H](C(C)C)C(=O)N(C)[C@@H](Cc2ccccc2)C(=O)N[C@@H](Cc2ccc(O)cc2)C(=O)N2CCCC[C@@H]2C(=O)N[C@@H](Cc2c[nH]c3ccccc23)C(=O)N[C@@H](Cc2ccc(O)cc2)C(=O)N[C@@H](CC(C)C)C(=O)N[C@H](C(=O)NCC(N)=O)CSCC(=O)N[C@@H](Cc2cc(F)c(F)c(F)c2)C(=O)N(C)[C@@H](Cc2ccccc2)C(=O)N1C` [Example 3217] ({CH2CO}-[Phe(3,4,5-F3)][NMeF][NMeNle][dP][Pip]V[NMeF]Y[dPip]WYLCG-NH2; thioether N-13), the IC50 lay in the range of 10 to 99.9 nM.

Take `CCCC[C@H]1C(=O)N2C[C@H](O)C[C@@H]2C(=O)N[C@@H](CC(=O)O)C(=O)N[C@@H](C(C)C)C(=O)N(C)[C@@H](Cc2ccccc2)C(=O)N[C@@H](CCC(=O)O)C(=O)N2CCC[C@@H]2C(=O)N[C@@H](Cc2c[nH]c3ccccc23)C(=O)N[C@@H](Cc2ccc(O)cc2)C(=O)N[C@@H](CCO)C(=O)N[C@H](C(=O)NCC(N)=O)CSCC(=O)N[C@@H](Cc2cc(F)c(F)c(F)c2)C(=O)N(C)[C@@H](Cc2ccccc2)C(=O)N1C` [Example 10154] ({CH2CO}-[Phe(3,4,5-F3)][NMeF][NMeNle][d(cisHyp)]DV[NMeF]E[dP]WY[hSer]CG-NH2; thioether N-13): the IC50 lay in the range of 1 to 9.9 nM.

Take `CCCC[C@H]1C(=O)N(C)[C@@H](CCCC)C(=O)N[C@@H](CCC(=O)O)C(=O)N[C@H](C(=O)NCC(N)=O)CSCC(=O)N[C@@H](Cc2ccc(OC)cc2)C(=O)N(C)[C@@H](C)C(=O)N[C@@H](CC(=O)O)C(=O)N2CCC[C@H]2C(=O)N[C@@H](Cc2c[nH]cn2)C(=O)N[C@@H](CCCCN)C(=O)N2C[C@H](O)C[C@H]2C(=O)N[C@@H](Cc2c[nH]c3ccccc23)C(=O)N[C@@H](CCN)C(=O)N[C@@H](Cc2cn(CC(=O)O)c3ccccc23)C(=O)N1C` [Example 7147] ({CH2CO}-Y(Me)[NMeA]DPHK[Hyp]W[Dab][Trp(1-CH2COOH)][NMeNle][NMeNle]ECG-NH2; thioether N-14): the IC50 was 1 to 9.9 nM.

With `CCCC[C@H]1C(=O)N(C)[C@@H](CCCC)C(=O)N[C@@H](CCC(=O)O)C(=O)NC(C(=O)NCC(N)=O)CSCC(=O)N[C@@H](Cc2ccc(O)cc2)C(=O)N(C)[C@@H](C)C(=O)N[C@@H](CC(N)=O)C(=O)N2CCC[C@H]2C(=O)N[C@@H](CC(N)=O)C(=O)N[C@@H](CC(C)C)C(=O)N2CCC[C@H]2C(=O)N[C@@H](Cc2c[nH]c3ccccc23)C(=O)N[C@@H](CO)C(=O)N[C@@H](Cc2c[nH]c3ccccc23)C(=O)N1C` (stereo partly drawn) [Example 9168] ({CH2CO}-Y[NMeA]NPNLPWSW[NMeNle][NMeNle]E[ξC]G-NH2; thioether N-14), the IC50 lay in the range of 1 to 9.9 nM.

Consider `CCCC[C@H]1C(=O)N2C[C@H](O)C[C@@H]2C(=O)N[C@@H](CC(=O)O)C(=O)N[C@@H](C(C)C)C(=O)N(C)[C@@H](Cc2ccccc2)C(=O)N[C@@H](CCC(=O)O)C(=O)N2CCNC[C@@H]2C(=O)N[C@@H](Cc2c[nH]c3ccccc23)C(=O)N[C@@H](Cc2ccc(O)cc2)C(=O)N[C@@H](CCCN)C(=O)N[C@H](C(=O)NCC(N)=O)CSCC(=O)N[C@@H](Cc2ccc(F)cc2)C(=O)N(C)[C@@H](Cc2ccccc2)C(=O)N1C` [Example 3648] ({CH2CO}-[Phe(4-F)][NMeF][NMeNle][d(cisHyp)]DV[NMeF]E[dPip(4-aza)]WY[Orn]CG-NH2; thioether N-13), for which the IC50 lay within 10 to 99.9 nM.

As for `CCCC[C@H]1C(=O)N(C)[C@@H](CCCC)C(=O)N[C@@H](CCCNC(=N)N)C(=O)N[C@H](C(=O)NCC(N)=O)CSCC(=O)N[C@@H](Cc2ccc(O)cc2)C(=O)N2CCCC[C@H]2C(=O)N[C@@H](CCC(=O)O)C(=O)N2CCC[C@H]2C(=O)N[C@@H](Cc2c[nH]cn2)C(=O)N[C@@H](CCCN)C(=O)N2C[C@H](O)C[C@H]2C(=O)N[C@@H](Cc2c[nH]c3ccccc23)C(=O)N[C@@H](CO)C(=O)N[C@@H](Cc2c[nH]c3ccccc23)C(=O)N1C` [Example 1538] ({CH2CO}-Y[Pip]EPH[Orn][Hyp]WSW[NMeNle][NMeNle]RCG-NH2; thioether N-14), the IC50 lay within 10 to 99.9 nM.

With `CCCC[C@H]1C(=O)N(C)[C@@H](CCCC)C(=O)NCC(=O)N[C@H](C(=O)NCC(N)=O)CSCC(=O)N[C@@H](Cc2ccc(O)cc2)C(=O)N(C)[C@@H](C)C(=O)N[C@@H](CC(N)=O)C(=O)N2CCC[C@H]2C(=O)NCC(=O)N[C@@H](CCC(N)=O)C(=O)N2C[C@H](O)C[C@H]2C(=O)N[C@@H](Cc2c[nH]c3ccccc23)C(=O)N[C@@H](CO)C(=O)N[C@@H](Cc2c[nH]c3ccccc23)C(=O)N1C` [Example 5175] ({CH2CO}-Y[NMeA]NPGQ[Hyp]WSW[NMeNle][NMeNle]GCG-NH2; thioether N-14), the IC50 lay within 1 to 9.9 nM.

For `CCCC[C@H]1C(=O)N(C)[C@@H](CCCC)C(=O)N[C@@H](CCC(=O)O)C(=O)N[C@H](C(=O)NCC(N)=O)CSCC(=O)N[C@@H](Cc2ccc(O)cc2)C(=O)N2CCCC[C@H]2C(=O)N[C@@H](CC(=O)O)C(=O)N2CCC[C@H]2C(=O)N[C@@H](CO)C(=O)N[C@@H](CCC(N)=O)C(=O)N2C[C@H](O)C[C@H]2C(=O)N[C@@H](Cc2c[nH]c3ccccc23)C(=O)N[C@@H](CO)C(=O)N[C@@H](Cc2csc3ccccc23)C(=O)N1C` [Example 1506] ({CH2CO}-Y[Pip]DPSQ[Hyp]WS[Bta][NMeNle][NMeNle]ECG-NH2; thioether N-14), the IC50 is 1 to 9.9 nM.

With `CCCC[C@H]1C(=O)N(C)[C@@H](CCCC)C(=O)N[C@@H](CN)C(=O)N[C@H](C(=O)NCC(N)=O)CSCC(=O)N[C@@H](Cc2ccc(O)cc2)C(=O)N(C)[C@@H](C)C(=O)N[C@@H](CC(N)=O)C(=O)N2CCC[C@H]2C(=O)N[C@@H](CN)C(=O)N[C@@H](CCC(=O)O)C(=O)N2C[C@H](O)C[C@H]2C(=O)N[C@@H](Cc2c[nH]c3ccccc23)C(=O)N[C@@H](CCN)C(=O)N[C@@H](Cc2cn(CC(=O)O)c3ccccc23)C(=O)N1C` [Example 6301] ({CH2CO}-Y[NMeA]NP[Dap]E[Hyp]W[Dab][Trp(1-CH2COOH)][NMeNle][NMeNle][Dap]CG-NH2; thioether N-14), the IC50 fell in the range of 1 to 9.9 nM.

Consider `CCCC[C@H]1C(=O)N(C)[C@@H](CCCC)C(=O)N[C@@H](CCCNC(=N)N)C(=O)NC(C(=O)NCC(N)=O)CSCC(=O)N[C@@H](Cc2ccc(O)cc2)C(=O)N(C)[C@@H](C)C(=O)N[C@@H](CC(N)=O)C(=O)N2CCC[C@H]2C(=O)N[C@@H](CCO)C(=O)N[C@@H](CO)C(=O)N2CCC[C@H]2C(=O)N[C@@H](Cc2c[nH]c3ccccc23)C(=O)N[C@@H](CO)C(=O)N[C@@H](Cc2c[nH]c3ccccc23)C(=O)N1C` (stereo partly drawn) [Example 10024] ({CH2CO}-Y[NMeA]NP[hSer]SPWSW[NMeNle][NMeNle]R[ξC]G-NH2; thioether N-14), for which the IC50 fell in the range of 10 to 99.9 nM.

Turning to `CCCC[C@H]1C(=O)N(C)[C@@H](CCCC)C(=O)N[C@@H](CCCNC(=N)N)C(=O)NC(C(=O)NCC(N)=O)CSCC(=O)N[C@@H](Cc2ccc(O)cc2)C(=O)N(C)[C@@H](C)C(=O)N[C@@H](Cc2cnc[nH]2)C(=O)N2CCC[C@H]2C(=O)N[C@@H](CC(N)=O)C(=O)N[C@@H](CC(C)C)C(=O)N2C[C@H](O)C[C@H]2C(=O)N[C@@H](Cc2c[nH]c3ccccc23)C(=O)N[C@@H](CO)C(=O)N[C@@H](Cc2c[nH]c3ccccc23)C(=O)N1C` (stereo partly drawn) [Example 9146] ({CH2CO}-Y[NMeA]HPNL[Hyp]WSW[NMeNle][NMeNle]R[ξC]G-NH2; thioether N-14), the IC50 was in the range of 1 to 9.9 nM.

As to `CCCC[C@H]1C(=O)N(C)[C@@H](CCCC)C(=O)N[C@@H](CCC(=O)O)C(=O)N[C@H](C(=O)NCC(N)=O)CSCC(=O)N[C@@H](Cc2ccc(O)cc2)C(=O)N(C)[C@@H](C)C(=O)N[C@@H](CC(=O)O)C(=O)N2CCC[C@H]2C(=O)N[C@@H](CO)C(=O)N[C@@H](CC(C)C)C(=O)N2C[C@H](O)C[C@H]2C(=O)N[C@@H](Cc2c[nH]c3ccccc23)C(=O)N[C@@H](CCC(=O)O)C(=O)N[C@@H](Cc2c[nH]c3ccccc23)C(=O)N1C` [Example 5254] ({CH2CO}-Y[NMeA]DPSL[Hyp]WEW[NMeNle][NMeNle]ECG-NH2; thioether N-14), the IC50 was 10 to 99.9 nM.

For `CCCC[C@H]1C(=O)N2CCC[C@@H]2C(=O)N[C@@H](CC(=O)O)C(=O)N[C@@H](C(C)C)C(=O)N(C)[C@@H](CC(C)C)C(=O)N[C@@H](Cc2ccc(O)cc2)C(=O)N2CCC[C@@H]2C(=O)N[C@@H](Cc2c[nH]c3ccccc23)C(=O)N[C@@H](Cc2ccc(O)cc2)C(=O)N[C@@H](CC(C)C)C(=O)N[C@H](C(=O)NCC(N)=O)CSCC(=O)N[C@@H](Cc2ccc(F)cc2)C(=O)N(C)[C@@H](Cc2ccccc2)C(=O)N1C` [Example 9249] ({CH2CO}-[Phe(4-F)][NMeF][NMeNle][dP]DV[NMeL]Y[dP]WYLCG-NH2; thioether N-13), the IC50 fell in the range of 100 to 990 nM.

As to `CCCC[C@H]1C(=O)N2CCC[C@@H]2C(=O)N2CCNC[C@H]2C(=O)N[C@@H](C(C)C)C(=O)N(C)[C@@H](Cc2ccccc2)C(=O)N[C@@H](Cc2ccc(O)cc2)C(=O)N2CCCC[C@@H]2C(=O)N[C@@H](Cc2c[nH]c3ccccc23)C(=O)N[C@@H](Cc2ccc(O)cc2)C(=O)N[C@@H](CC(C)C)C(=O)N[C@H](C(=O)NCC(N)=O)CSCC(=O)N[C@@H](Cc2cc(F)c(F)c(F)c2)C(=O)N(C)[C@@H](Cc2ccccc2)C(=O)N1C` [Example 3218] ({CH2CO}-[Phe(3,4,5-F3)][NMeF][NMeNle][dP][Pip(4-aza)]V[NMeF]Y[dPip]WYLCG-NH2; thioether N-13), the IC50 lay in the range of 1 to 9.9 nM.

Values taken from patent publication US10538555B2, “Macrocyclic inhibitors of the PD-1/PD-L1 and CD80(B7-1)/PD-L1 protein/protein interactions” (BRISTOL-MYERS SQUIBB COMPANY, priority 2014, dated 2020).
